# Reference: ChEMBL document CHEMBL3865840, “Minimizing CYP2C9 Inhibition of Exposed-Pyridine NAMPT (Nicotinamide Phosphoribosyltransferase) Inhibitors” (J Med Chem, 2016)
# Calls of active or inactive are those of the source. The rule behind the calls is not given here.
# Columns and labels:
# Cytochrome P450 2C9 [1] = biological target: T1, Cytochrome P450 2C9 (Homo sapiens, UniProt P11712)
# Cytochrome P450 2C19 [2] = biological target: T2, Cytochrome P450 2C19 (Homo sapiens, UniProt P33261)
# Cytochrome P450 2D6 [3] = biological target: T3, Cytochrome P450 2D6 (Homo sapiens, UniProt P10635)
# T3 sequence (P10635 whole entry): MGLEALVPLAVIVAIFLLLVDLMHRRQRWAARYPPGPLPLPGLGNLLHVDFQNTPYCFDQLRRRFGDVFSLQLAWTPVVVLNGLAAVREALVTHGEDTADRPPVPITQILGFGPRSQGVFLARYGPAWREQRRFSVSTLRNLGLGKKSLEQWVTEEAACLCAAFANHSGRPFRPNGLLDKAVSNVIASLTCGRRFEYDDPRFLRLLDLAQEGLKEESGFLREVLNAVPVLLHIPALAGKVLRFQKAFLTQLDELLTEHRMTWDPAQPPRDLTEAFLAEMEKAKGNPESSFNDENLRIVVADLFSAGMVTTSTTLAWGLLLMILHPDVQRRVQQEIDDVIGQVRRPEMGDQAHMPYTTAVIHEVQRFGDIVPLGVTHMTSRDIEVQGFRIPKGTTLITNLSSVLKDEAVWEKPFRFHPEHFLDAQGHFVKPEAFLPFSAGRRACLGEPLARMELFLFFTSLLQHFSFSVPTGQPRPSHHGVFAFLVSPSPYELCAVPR
# [4] = Octanol-aqueous phosphate buffer distribution coefficient, log D of the compound at pH 7.4 after 1 hr by LC/MS/MS analysis; type: physicochemical
# [5] = Apparent permeability from basolateral to apical side in MDCK cells at 10 uM by LC/MS/MS analysis; type: ADME, cell-based, Canis lupus familiaris; conditions: dog
# [6] = Apparent permeability from apical to basolateral side in MDCK cells at 10 uM by LC/MS/MS analysis; type: ADME, cell-based, Canis lupus familiaris; conditions: dog
# [7] = Volume of distribution at steady state in Sprague-Dawley rat at 1 mg/kg, iv; type: ADME, organism-based; conditions: in vivo, read-out: Vdss
# [8] = Half life in Beagle dog at 0.5 mg/kg, iv; type: ADME, organism-based, Canis lupus familiaris; conditions: in vivo
# Cytochrome P450 2D6 [9] = biological target: T3, Cytochrome P450 2D6; test: Time dependent inhibition of CYP2D6 in human liver microsomes assessed as substrate AUC shift; type: ADME; design: scale not given: the % may be the effect or the level left
# Mus musculus [10] = test: Toxicity in nude NCR mouse xenografted with human HT1080 cells assessed as change in body weight at 25 to 50 mg/kg administered via oral gavage twice per day for 5 consecutive days measured up to 20 days; type: organism-based, HT-1080; conditions: in vivo, 480 h
# [11] = Thermodynamic solubility of the compound in PBS at pH 7.4 after 24 hrs by liquid chromatography-chemiluminescence nitrogen detection assay; type: physicochemical; conditions: read-out: Therm_solubility
# Cytochrome P450 1A2 [12] = biological target: T4, Cytochrome P450 1A2 (Homo sapiens, UniProt P05177); test: Time dependent inhibition of CYP1A2 in human liver microsomes assessed as substrate AUC shift; type: ADME; design: scale not given: the % may be the effect or the level left
# T4 sequence (P05177 whole entry): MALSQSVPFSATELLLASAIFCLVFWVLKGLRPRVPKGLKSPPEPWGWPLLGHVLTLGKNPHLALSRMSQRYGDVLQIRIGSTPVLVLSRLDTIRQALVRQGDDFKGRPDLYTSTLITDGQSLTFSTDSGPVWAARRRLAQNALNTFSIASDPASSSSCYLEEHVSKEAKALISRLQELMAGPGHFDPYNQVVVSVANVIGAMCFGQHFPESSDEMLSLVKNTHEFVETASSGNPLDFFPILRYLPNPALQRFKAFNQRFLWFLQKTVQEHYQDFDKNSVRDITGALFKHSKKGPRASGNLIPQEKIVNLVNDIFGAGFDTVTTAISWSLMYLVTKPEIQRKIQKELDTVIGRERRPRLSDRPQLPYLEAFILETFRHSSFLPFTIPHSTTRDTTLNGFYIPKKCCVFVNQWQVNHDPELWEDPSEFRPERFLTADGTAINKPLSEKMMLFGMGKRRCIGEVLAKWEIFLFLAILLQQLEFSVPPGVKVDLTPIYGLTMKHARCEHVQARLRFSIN
# Cytochrome P450 1A2 [13] = biological target: T4, Cytochrome P450 1A2; test: Reversible inhibition of CYP1A2 in human liver microsomes using […] as substrate in presence of NADPH by LC-MS/MS analysis; type: ADME
# [14] = Protein binding in dog plasma at 5 uM after 4 hrs by rapid equilibrium dialysis based LC-MS/MS analysis; type: ADME, cell-free, Canis lupus familiaris; conditions: read-out: PPB (converted)
# [15] = Half life in Sprague-Dawley rat at 1 mg/kg, iv; type: ADME, organism-based; conditions: in vivo
# [16] = Cmax in Sprague-Dawley rat at 5 mg/kg, po; type: ADME, organism-based; design: dose 5 mg/kg, route oral; conditions: in vivo
# [17] = AUC in Beagle dog at 3 mg/kg, po; type: ADME, organism-based, Canis lupus familiaris; conditions: in vivo
# Mus musculus [18] = test: Increase in body weight in human HT1080 tumor bearing nude NCR mouse cachexia model at 25 to 50 mg/kg administered via oral gavage twice per day for 5 consecutive days measured up to 20 days; type: functional, organism-based
# [19] = Protein binding in mouse plasma at 5 uM after 4 hrs by rapid equilibrium dialysis based LC-MS/MS analysis; type: ADME, cell-free; conditions: read-out: PPB (converted)
# [20] = Kinetic solubility of the compound in PBS at 200 uM at pH 7.4 after 24 hrs by liquid chromatography-chemiluminescence nitrogen detection assay; type: physicochemical; conditions: read-out: Kinetic_solubility
# Cytochrome P450 3A4 [21] = biological target: T5, Cytochrome P450 3A4 (Homo sapiens, UniProt P08684); test: Time dependent inhibition of CYP3A4 in human liver microsomes assessed as substrate AUC shift using testosterone as substrate; type: ADME; design: scale not given: the % may be the effect or the level left
# T5 sequence (P08684 whole entry): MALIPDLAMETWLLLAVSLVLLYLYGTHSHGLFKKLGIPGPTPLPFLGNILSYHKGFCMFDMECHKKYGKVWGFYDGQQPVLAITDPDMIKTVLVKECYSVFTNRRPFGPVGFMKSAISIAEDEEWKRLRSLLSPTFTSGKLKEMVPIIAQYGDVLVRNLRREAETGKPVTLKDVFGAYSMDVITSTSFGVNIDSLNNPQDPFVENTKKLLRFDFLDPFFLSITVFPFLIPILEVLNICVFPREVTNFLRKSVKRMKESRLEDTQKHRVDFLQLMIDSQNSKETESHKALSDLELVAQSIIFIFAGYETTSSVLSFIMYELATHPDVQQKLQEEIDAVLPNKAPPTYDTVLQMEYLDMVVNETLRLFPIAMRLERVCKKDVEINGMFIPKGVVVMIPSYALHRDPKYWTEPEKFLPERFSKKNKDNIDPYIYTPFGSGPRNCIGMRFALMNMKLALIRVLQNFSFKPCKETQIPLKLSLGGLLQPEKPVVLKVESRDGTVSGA
# Cytochrome P450 2C19 [22] = biological target: T2, Cytochrome P450 2C19; test: Time dependent inhibition of CYP2C19 in human liver microsomes assessed as substrate AUC shift; type: ADME; design: scale not given: the % may be the effect or the level left
# [23] = Protein binding in cynomolgus monkey plasma at 5 uM after 4 hrs by rapid equilibrium dialysis based LC-MS/MS analysis; type: ADME, cell-free, Macaca fascicularis; conditions: read-out: PPB (converted)
# [24] = Clearance in Sprague-Dawley rat at 1 mg/kg, iv; type: ADME, organism-based; conditions: in vivo
# Cytochrome P450 2D6 [25] = biological target: T3, Cytochrome P450 2D6; test: Reversible inhibition of CYP2D6 in human liver microsomes using […] as substrate in presence of NADPH by LC-MS/MS analysis; type: ADME
# [26] = Time at which plasma concentration stays above plasma protein binding corrected human HT1080 cells IC50 in nude NCR mouse at 25 mg/kg, po bid administered via gavage; type: ADME, organism-based, HT-1080; conditions: in vivo
# [27] = Oral bioavailability in Sprague-Dawley rat at 5 mg/kg; type: ADME, organism-based; conditions: in vivo
# HT-1080 = test: Antitumor activity against human HT1080 cells xenografted in nude NCR mouse assessed as tumor growth inhibition at 25 to 50 mg/kg administered via oral gavage twice per day for 5 consecutive days measured up to 20 days; type: functional, organism-based
# [28] = AUC in Sprague-Dawley rat at 5 mg/kg, po; type: ADME, organism-based; conditions: in vivo
# [29] = Protein binding in rat plasma at 5 uM after 4 hrs by rapid equilibrium dialysis based LC-MS/MS analysis; type: ADME, cell-free; conditions: read-out: PPB (converted)
# Cytochrome P450 3A4 [30] = biological target: T5, Cytochrome P450 3A4; test: Reversible inhibition of CYP3A4 in human liver microsomes using midazolam as substrate in presence of NADPH by LC-MS/MS analysis; type: ADME
# Cytochrome P450 2C9 [31] = biological target: T1, Cytochrome P450 2C9; test: Time dependent inhibition of CYP2C9 in human liver microsomes assessed as substrate AUC shift; type: ADME; design: scale not given: the % may be the effect or the level left
# Cytochrome P450 3A4 [32] = biological target: T5, Cytochrome P450 3A4; test: Time dependent inhibition of CYP3A4 in human liver microsomes assessed as substrate AUC shift using midazolam as substrate; type: ADME; design: scale not given: the % may be the effect or the level left
# [33] = Oral bioavailability in Beagle dog at 3 mg/kg; type: ADME, organism-based, Canis lupus familiaris; conditions: in vivo
# [34] = Cmax in Beagle dog at 3 mg/kg, po; type: ADME, organism-based, Canis lupus familiaris; design: dose 3 mg/kg, route oral; conditions: in vivo
# [35] = Volume of distribution at steady state in Beagle dog at 0.5 mg/kg, iv; type: ADME, organism-based, Canis lupus familiaris; conditions: in vivo, read-out: Vdss
# Cytochrome P450 3A4 [36] = biological target: T5, Cytochrome P450 3A4; test: Reversible inhibition of CYP3A4 in human liver microsomes using testosterone as substrate in presence of NADPH by LC-MS/MS analysis; type: ADME
# Cytochrome P450 2C19 [37] = biological target: T2, Cytochrome P450 2C19; test: Reversible inhibition of CYP2C19 in human liver microsomes using […] as substrate in presence of NADPH by LC-MS/MS analysis; type: ADME
# [38] = Protein binding in human plasma at 5 uM after 4 hrs by rapid equilibrium dialysis based LC-MS/MS analysis; type: ADME, cell-free; conditions: read-out: PPB (converted)
# [39] = Clearance in Beagle dog at 0.5 mg/kg, iv; type: ADME, organism-based, Canis lupus familiaris; conditions: in vivo
# T1 sequence (P11712 whole entry): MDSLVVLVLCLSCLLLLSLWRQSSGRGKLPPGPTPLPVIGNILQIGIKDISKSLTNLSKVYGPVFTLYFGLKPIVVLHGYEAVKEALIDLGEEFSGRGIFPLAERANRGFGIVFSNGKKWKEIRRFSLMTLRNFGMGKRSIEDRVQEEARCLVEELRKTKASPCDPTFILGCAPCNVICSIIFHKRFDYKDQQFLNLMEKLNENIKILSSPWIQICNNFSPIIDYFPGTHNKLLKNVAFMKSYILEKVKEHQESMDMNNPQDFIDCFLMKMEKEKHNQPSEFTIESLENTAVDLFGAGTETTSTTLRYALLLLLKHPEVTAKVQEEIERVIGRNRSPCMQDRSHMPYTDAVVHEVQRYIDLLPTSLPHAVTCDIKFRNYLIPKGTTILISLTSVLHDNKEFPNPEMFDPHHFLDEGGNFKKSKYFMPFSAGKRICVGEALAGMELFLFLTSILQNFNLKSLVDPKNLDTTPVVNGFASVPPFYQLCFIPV
# T2 sequence (P33261 whole entry): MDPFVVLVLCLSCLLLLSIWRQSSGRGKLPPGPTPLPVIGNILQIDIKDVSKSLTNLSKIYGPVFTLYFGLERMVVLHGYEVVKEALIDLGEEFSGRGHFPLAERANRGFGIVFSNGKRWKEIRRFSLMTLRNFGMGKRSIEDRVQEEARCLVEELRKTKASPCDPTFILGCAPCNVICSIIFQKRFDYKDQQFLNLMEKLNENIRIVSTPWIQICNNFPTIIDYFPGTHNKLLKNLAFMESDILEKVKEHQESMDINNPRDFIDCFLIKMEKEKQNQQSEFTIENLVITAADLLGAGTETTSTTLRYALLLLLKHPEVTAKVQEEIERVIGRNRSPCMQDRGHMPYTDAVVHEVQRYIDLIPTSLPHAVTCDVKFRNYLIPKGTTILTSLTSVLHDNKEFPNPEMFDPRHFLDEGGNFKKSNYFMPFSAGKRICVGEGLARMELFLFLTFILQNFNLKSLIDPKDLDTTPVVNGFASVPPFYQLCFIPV
structure (smiles),measurement,setting,value
O=C(/C=C/c1cccnc1)NCCCCC1CCN(C(=O)c2ccccc2)CC1 [DAPORINAD],IC50,Cytochrome P450 2C9 [1],3.6 µM
same,IC50,Cytochrome P450 2C19 [2],> 10 µM
same,IC50,Cytochrome P450 2D6 [3],> 10 µM
O=C(NCc1ccc([S@@+]([O-])c2cc(F)cc(F)c2)cn1)c1cc2ccncc2o1,logD at 1 h,[4],2
same,Papp B→A at 10 µM,[5],90 nm/s
same,Papp A→B at 10 µM,[6],210 nm/s
CC1(OC(=O)N2CCC3(CC2)C[C@@H]3CNC(=O)N2Cc3ccncc3C2)COC1,Vd,[7],9 L/kg
same,half-life,[8],1.2 h
same,Activity,Cytochrome P450 2D6 [9],< 15%
same,Activity,Mus musculus [10],Non-Toxic
same,IC50,Cytochrome P450 2C9 [1],> 10 µM
same,solubility thermodynamic at 24 h,[11],> 6 mM
same,Activity,Cytochrome P450 1A2 [12],< 15%
same,IC50,Cytochrome P450 1A2 [13],> 10 µM
same,"fraction unbound at 4 h, 5 µM",[14],0.34
same,half-life,[15],1.4 h
same,Cmax,[16],0.64 µM
same,AUC,[17],10.5 µM·h
same,Activity,Mus musculus [18],Active
same,"fraction unbound at 4 h, 5 µM",[19],0.47
same,logD at 1 h,[4],1.2
same,"solubility kinetic at 24 h, 200 µM",[20],> 0.1 mM
same,Activity,Cytochrome P450 3A4 [21],< 15%
same,Activity,Cytochrome P450 2C19 [22],< 15%
same,"fraction unbound at 4 h, 5 µM",[23],0.46
same,clearance,[24],6.6 L/h/kg
same,IC50,Cytochrome P450 2D6 [25],> 10 µM
same,Papp B→A at 10 µM,[5],120 nm/s
same,Time,[26],20 h
same,bioavailability,[27],29%
same,TGI,HT-1080,Active
same,AUC,[28],0.55 µM·h
same,"fraction unbound at 4 h, 5 µM",[29],0.44
same,IC50,Cytochrome P450 3A4 [30],> 10 µM
same,Activity,Cytochrome P450 2C9 [31],< 15%
same,Activity,Cytochrome P450 3A4 [32],< 15%
same,bioavailability,[33],86%
same,Cmax,[34],4.8 µM
same,Papp A→B at 10 µM,[6],88 nm/s
same,Vd,[35],0.8 L/kg
same,IC50,Cytochrome P450 3A4 [36],> 10 µM
same,IC50,Cytochrome P450 2C19 [37],> 10 µM
same,"fraction unbound at 4 h, 5 µM",[38],0.44
same,clearance,[39],0.648 L/h/kg
O=C(NCc1cccnc1)Nc1ccc(S(=O)(=O)N2CCC3(CCNC3)CC2)cc1,logD at 1 h,[4],< -0.5
same,Papp B→A at 10 µM,[5],4.3 nm/s
O=C(NCC1CCCCC1)c1cc2cnccc2[nH]1,IC50,Cytochrome P450 2C9 [1],> 10 µM
same,logD at 1 h,[4],3.1
O=C(NCC1CC12CCN(C(=O)c1ccccc1)CC2)N1Cc2ccncc2C1 (racemic),IC50,Cytochrome P450 2C9 [1],> 10 µM
same,Papp B→A at 10 µM,[5],190 nm/s
same,Papp A→B at 10 µM,[6],79 nm/s
Cc1nn(C)c(C)c1C(=O)N1CCC2(CC1)CC2CNC(=O)N1Cc2ccncc2C1 (racemic),IC50,Cytochrome P450 2C9 [1],> 10 µM
same,Papp B→A at 10 µM,[5],19 nm/s
same,Papp A→B at 10 µM,[6],2 nm/s
Nc1cc2[nH]c(C(=O)NCc3ccc(S(=O)(=O)c4cc(F)cc(F)c4)cc3)cc2cn1,IC50,Cytochrome P450 2C9 [1],> 10 µM
same,Activity,Cytochrome P450 3A4 [21],69%
same,Activity,Cytochrome P450 3A4 [32],83%
CC1(OC(=O)N2CCC3(CC2)CC3CNC(=O)N2Cc3ccncc3C2)COC1 (racemic),IC50,Cytochrome P450 2C9 [1],> 10 µM
same,Papp B→A at 10 µM,[5],160 nm/s
same,Papp A→B at 10 µM,[6],110 nm/s
NS(=O)(=O)c1ccc(CNC(=O)c2cc3cnccc3[nH]2)cc1,IC50,Cytochrome P450 2C9 [1],0.34 µM
same,logD at 1 h,[4],0.6
Cc1ccc(CNC(=O)Nc2ccc(S(=O)(=O)c3ccccc3)cc2)cn1,logD at 1 h,[4],2.4
O=C(NCc1ccc(NS(=O)(=O)C2CCCC2)cc1)c1cc2cnccc2[nH]1,IC50,Cytochrome P450 2C9 [1],0.36 µM
same,logD at 1 h,[4],2.5
O=C(NCc1ccccc1)c1cc2cnccc2[nH]1,IC50,Cytochrome P450 2C9 [1],> 10 µM
same,logD at 1 h,[4],2.2
